Data from a melting point compilation (Tetko et al.; mined from patent text by program, amines drawn as free bases though some values may be those of a salt).

Compared with `O=Cc1ccc(-c2ccc(-c3ccco3)o2)o1`, `COc1ccc2[nH]c3ccccc3c2c1` is higher in melting point: 75 to 77 °C for the first, 148 to 150 °C for the second.

First: COc1cc(NC(NC(C)C(C)(C)C)=C(C#N)S(C)(=O)=O)cc(C(F)(F)F)c1 (centres undefined)
Second: NC(=O)N(O)CCNC(=O)c1cccc(Oc2cccc(C(F)(F)F)c2)c1
The melting point of the first is lower: 110 to 113 °C for the first, 126 to 128 °C for the second.

First: CSc1ncc(Oc2ccc(Cl)cc2)c(=O)[nH]1
Second: N#Cc1cc(-c2ccc(Cl)cc2)cnc1Cl
The melting point of the first is higher: 232 to 233 °C for the first, 185 to 187 °C for the second.

Compared with `NC(=O)c1cccc(-c2c(F)ccc3cc(Cc4cccc(C(F)(F)F)c4)sc23)c1`, `COc1cc(CC(=O)O)ccc1SCc1sc(-c2ccc(C(F)(F)F)cc2)nc1C` is higher in melting point: 166 to 167 °C for the first, 181 to 182 °C for the second.

First: CC1Cc2cc3c(cc2C(c2ccc([N+](=O)[O-])cc2)=NN1C(=S)NC(=O)NC1CC1)OCO3 (centres undefined)
Second: O=C(O)c1cc([N+](=O)[O-])ccc1-c1ccc([N+](=O)[O-])cc1C(=O)O
The melting point of the first is higher: 281 to 283 °C for the first, 255 to 258 °C for the second.

First: CN(c1cccc2cc(C3=NCC(CC(=O)NS(C)(=O)=O)S3)[nH]c12)S(=O)(=O)c1cccs1 (centres undefined)
Second: CN(C)CCOc1ccc2sc(C(=O)Nc3ccccc3N)cc2c1
The melting point of the first is lower: 141 °C for the first, 191 to 193 °C for the second.

Compared with `COC=C(C#N)C(=O)c1cc(F)c(Cl)cc1Cl`, `CS(=O)(=O)ON=C(Cl)c1ccc(Cl)c(Cl)c1` is lower in melting point: 159 °C for the first, 73 to 75 °C for the second.

Compared with `COc1cc(NC(=O)Nc2ccc(C3CCN(C(=O)Nc4ccc(OCCO)cc4Cl)CC3)cc2)cc(OC)c1`, `COc1ccc([C@@H]2CCc3cc(OC)ccc3[C@@H]2CCn2ccnc2)cc1` (relative stereo) is higher in melting point: 101 to 105 °C for the first, 121 °C for the second.

First: Cc1ncc2c(c1OCC(=O)O)COC2c1ccc(Cl)cc1 (centres undefined)
Second: COC(=O)C1(Cl)CC(=O)N(c2ccc(Cl)cc2)C1=C(Cl)Cl (centres undefined)
The melting point of the first is higher: 226 to 230 °C for the first, 159 °C for the second.

Compared with `O=C(O)c1ccc(=O)n(CCCNC(=O)c2ccccn2)c1`, `O=c1ccn(Cc2ccccc2)c(=O)[nH]1` is lower in melting point: 180 to 182 °C for the first, 168 to 170 °C for the second.

Compared with `CCN1C(CNC(=O)c2cc(Cl)c(N)cc2OC)CCC1c1ccccc1` (centres undefined), `COc1ccccc1C(CSc1ccccc1N)C(=O)O` (centres undefined) is lower in melting point: 187 to 188 °C for the first, 85 °C for the second.

Going from `COC(=O)Oc1ccc(C=Nc2ccc(C#N)cc2)cc1` to `N#Cc1ccc(OCCCNCCO)cc1`, the melting point falls from 139 °C to 88 °C.

First: CC1(O)c2ccccc2C(C)(O)c2ccccc21 (centres undefined)
Second: CCc1ccc2c(c1)OC1(O)c3cccc(N)c3C(=O)C21O (centres undefined)
The melting point of the first is lower: 178 to 179 °C for the first, 200 to 203 °C for the second.

First: CS(=O)C1=NS(=O)(=O)c2cc(Cl)ccc2N1 (centres undefined)
Second: C=CC(=O)Nc1n[nH]c2cc(Cl)ccc12
The melting point of the first is higher: 260 to 261 °C for the first, 205 °C for the second.

Compared with `CCOC(=O)c1cn(-c2ccc([N+](=O)[O-])cn2)cn1`, `CCOC(=O)c1nc(-c2ccc(OC)cc2)sc1C` is lower in melting point: 212 to 214 °C for the first, 65 to 66 °C for the second.

Compared with `Oc1cccc2c1CCCC2n1cc[nH]c1=S` (centres undefined), `CC(C)(C)[S@](=O)N1CCC[C@@H]1c1ccc(O)cc1` is lower in melting point: 188 to 190 °C for the first, 150 °C for the second.

Compared with `Cc1ccc(S(=O)(=O)Nc2cc3c(c(C(=O)O)c2)NC(c2ccccc2)CC3)cc1` (centres undefined), `Cc1ccc(-c2c(-c3ccc(S(N)(=O)=O)cc3)[nH]c3ccccc23)cc1` is higher in melting point: 219 to 220 °C for the first, 293 to 295 °C for the second.

Compared with `CN1CCC(c2c[nH]c3ccc(NC(=O)c4ccc(F)s4)nc23)CC1`, `CN1CCN(C(=O)CCC(=O)c2ccc3[nH]c4nc(Cl)ccc4c3c2)CC1` is lower in melting point: 244 to 245 °C for the first, 236 °C for the second.

First: CN(CC(=O)[C@H](Cc1ccccc1)NC(=O)N1CCOCC1)C(=O)N1CCC[C@H]1C(=O)O
Second: COc1cccc(N2CCN(c3ccc(S(=O)(=O)N[C@@H](Cc4ccccc4)C(=O)O)cc3)CC2)c1
The melting point of the first is lower: 75 to 90 °C for the first, 137 to 139 °C for the second.

Compared with `CN1c2cscc2C(=O)N(Cc2ccccc2)c2ccccc21`, `CN1Cc2c(C#Cc3ccccc3)ncn2-c2cccc(Cl)c2C1=O` is higher in melting point: 137 to 138 °C for the first, 205 to 206 °C for the second.

First: CCC1C(=O)NC1C=COC(C)=O (centres undefined)
Second: CCCCCCCCCCCC(=O)N[C@H]1CCCNC(=O)C1
The melting point of the first is higher: 102 °C for the first, 93 to 94 °C for the second.

First: O=C(O)c1cnc(Oc2ccccc2)s1
Second: O=C(Oc1ccc2ncccc2c1)c1ccccc1
The melting point of the first is higher: 172 to 173 °C for the first, 77 to 79 °C for the second.

Compared with `COc1cc(OCC(CO)CO)c(-c2cccs2)cc1C=O`, `COc1cc(OCC(CO)CO)c(C=CC(=O)c2ccc(S(N)(=O)=O)cc2)cc1-c1cccs1` is lower in melting point: 144 to 145 °C for the first, 123 to 124 °C for the second.

First: O=C(OCC1c2ccccc2-c2ccccc21)N1Cc2cccn2Cc2ccccc21
Second: COc1ccccc1-c1nc(-c2ccccc2)nc(-c2ccccc2O)n1
The melting point of the first is lower: 141 to 142 °C for the first, 153 to 155 °C for the second.

Compared with `CC(C)(C)OC(=O)N1CC=C(c2ncccc2N)CC1`, `NC1=NN(c2ccccn2)CC1` is higher in melting point: 104 to 105 °C for the first, 168 to 170 °C for the second.

First: CCNC(=O)c1cccc(F)c1N
Second: CCOC(=O)C(=O)c1cccc(NC=O)n1
The melting point of the first is lower: 60 °C for the first, 124 to 126 °C for the second.

Compared with `CC1(C)CCc2cc(C#N)ccc2O1`, `CCCC(SCC(=O)O)c1ccc2c(c1)OCO2` (centres undefined) is higher in melting point: 30 to 31 °C for the first, 59 to 61 °C for the second.

First: O=C(Nc1ccc(-n2nc(C(F)(F)F)cc2C(F)(F)F)cc1)c1cc2cc(F)ccc2[nH]1
Second: CC(=O)Nc1ccc(N2CCN(Cc3ccccc3)CC2)cc1
The melting point of the first is higher: 253 to 255 °C for the first, 159 to 161 °C for the second.

First: CCc1cc(C#N)c(OC)nc1C
Second: COc1nc2cc(Cl)c(Cl)c(NS(C)(=O)=O)c2nc1OC
The melting point of the first is lower: 59 to 61 °C for the first, 225 to 227 °C for the second.

First: O=C(NCc1ccc(O)cc1)c1[nH]c2ccc(Cl)cc2c1S(=O)(=O)c1ccccc1
Second: CC(Nc1nc2ccc(Cl)cc2cc1C(=O)O)C(=O)Nc1ccc2ccccc2c1 (centres undefined)
The melting point of the first is higher: 249 to 250 °C for the first, 230 to 243 °C for the second.

First: CC(C)C1(C)N=C(c2ccccc2C(=O)O)N(O)C1=O (centres undefined)
Second: C[C@@H](Sc1ccc(O)cc1)C(=O)O
The melting point of the first is higher: 186 to 188 °C for the first, 138 to 139 °C for the second.

First: COC(=O)c1ccc(OC)c2c1OCCO2
Second: COC(=O)c1ccc(C#Cc2ccccc2F)o1
The melting point of the first is lower: 84 °C for the first, 106 to 108 °C for the second.

First: COc1cc2cc3ncc(C#N)c(Nc4ccc(Oc5ccccc5)c(Cl)c4)c3cc2cc1OCCN1CCOCC1
Second: COc1ccccc1-c1cc(N2CCN(Cc3ccc(C)cc3)CC2)n2ccc(=O)ccc12
The melting point of the first is higher: 251 to 253 °C for the first, 186 °C for the second.

First: NC(=O)c1ccccc1-n1nnc2cccnc21
Second: O=C(Nc1noc2ccccc12)N1CCN(c2nc(-c3ccccn3)ns2)CC1
The melting point of the first is higher: greater than 340 °C for the first, 222 to 223 °C for the second.

First: Fc1cc(F)c(-c2c(Cl)nc3nccnc3c2Cl)c(F)c1
Second: COC(=O)CNC(=O)c1cc(C(=O)OC)c(O)c2ncc(Cc3ccc(F)cc3)cc12
The melting point of the first is lower: 139 to 141 °C for the first, 209 to 210 °C for the second.

First: O=C(c1ccc2nonc2c1)N1C2CCC1COC2
Second: CCOc1ccc2[nH]c(=O)n(C3CCCCCC3)c2c1
The melting point of the first is lower: 139 to 140 °C for the first, 204 °C for the second.

Compared with `CCC(C)(C)c1cc(-c2ccc(F)c(C=C3SC(N4CCOCC4)=NC3=O)c2)ccc1O`, `CC(C)(C(=O)Nc1cc(F)ccc1F)N1COC(C=O)=C(c2ccccc2)C1=O` is lower in melting point: 246 to 247 °C for the first, 76 to 77.5 °C for the second.

Compared with `O=C(O)CCC(=O)N1CCc2cc(S(=O)(=O)N3CCN(c4cccc(C(F)(F)F)c4)CC3)ccc21`, `CCCOc1ccc(S(=O)(=O)N2CCN(C(C)=O)CC2)cc1-c1nc2cc(Cl)c([N+](=O)[O-])cc2c(=O)[nH]1` is lower in melting point: 274 to 276 °C for the first, 215 to 217 °C for the second.

First: NC(=O)c1cccc(-c2nc3sccn3c2-c2ccnc(N[C@@H]3CCCNC3)n2)c1
Second: Nc1cc(=O)n(CCCO)c2nc(NC3CCCCC3)ncc12
The melting point of the first is higher: 202 to 205 °C for the first, 131 to 132 °C for the second.

First: CCCCCC/C=C/[C@@H](O)[C@H](CO)N=[N+]=[N-]
Second: CCCCCCCCCc1ccc(C(CCCC=O)C(=O)OC)cc1 (centres undefined)
The melting point of the first is lower: 29 to 30 °C for the first, 38 to 39 °C for the second.

First: CCn1nc(-c2cccs2)c(C(=O)OCCOC(C)=O)c(Nc2cncc3ccccc23)c1=O
Second: CCOC(=O)C(O)CCc1ccc(OC)c(OCc2ccccc2)c1 (centres undefined)
The melting point of the first is higher: 155 to 157 °C for the first, 93 to 94 °C for the second.

First: Cc1ccccc1-c1nc2c3ccccc3ccn2c1N=Cc1ccc2ccccc2c1Br
Second: Cc1cccnc1-c1ccccc1Nc1nc(Nc2ccc3c(c2)C(C)(C)CCC(=O)N3)ncc1Cl
The melting point of the first is higher: 250 to 252 °C for the first, 130 to 135 °C for the second.

First: O=C(NNC(=O)c1occ(-c2ccccc2)c1-c1ccccc1)c1ccsc1
Second: O=c1[nH]c(=O)n(CCCCN2CCC(OC(c3ccccc3)c3ccccc3)CC2)c2cc(Cl)ccc12
The melting point of the first is higher: 195 to 197 °C for the first, 169 to 171 °C for the second.

Compared with `O=C1CC(ON(Cc2ccccc2)Cc2ccccc2)C(=O)N1C1CCCCC1` (centres undefined), `CC(C)N(CCC(CCN(C)C1CCCCC1)(C(N)=O)c1ccccc1)C(C)C` (centres undefined) is higher in melting point: 75 to 77 °C for the first, 90 to 91 °C for the second.

First: C=C(C)C(=O)N1CCC(C(=O)O)CC1
Second: O=S1(=O)CCC(NCCNC2CCS(=O)(=O)C2)C1 (centres undefined)
The melting point of the first is higher: 90 to 93 °C for the first, 60 to 85 °C for the second.

First: COc1ccc(-c2nc(C)c(NC(=O)c3nnn[nH]3)s2)cc1
Second: COc1c(C)c(C)cc(C)c1C(O)(c1ccc(C)cc1)C(C)C (centres undefined)
The melting point of the first is higher: 205 to 207 °C for the first, 103 to 104 °C for the second.

First: CC#CCOc1ccc(S(=O)(=O)C(C(=O)NO)c2ccc(Br)cc2)cc1 (centres undefined)
Second: COc1ccc(S(=O)(=O)[C@H](CCCCc2ccccc2)[C@@H](CCS(=O)(=O)c2ccccc2)C(=O)NO)cc1OC
The melting point of the first is higher: 187 °C for the first, 78 to 81 °C for the second.

Compared with `CCCCc1nc(C(F)(F)F)c(C(=O)OCC)[nH]1`, `CCOC(=O)c1ncn(-c2nncs2)c1S(=O)(=O)NC(=O)Nc1nc(OC)cc(OC)n1` is higher in melting point: 51 to 53 °C for the first, 169 to 171 °C for the second.

First: Cc1nc(-c2ccc(-c3ccc(C(=O)Nc4ccc(Br)c(OCCN(C)C)c4)cc3)c(C)c2)no1
Second: COc1cc(NCCCC(C)N2C(=O)c3ccccc3C2=O)c2nc(C)cc(C)c2c1OC (centres undefined)
The melting point of the first is lower: 138 to 140 °C for the first, 141 to 144 °C for the second.

Compared with `COc1nc(N)nc(OC)n1`, `CNc1nc(N)c(SC)c(Cl)n1` is lower in melting point: 218 to 221 °C for the first, 205 °C for the second.

Compared with `CC(=O)Oc1cccc2[nH]ccc12`, `C=CCNC(=O)N1CC(Oc2cccc(C)c2)C1` is lower in melting point: 97 to 98 °C for the first, 95 to 96 °C for the second.

First: Cc1cc([N+](=O)[O-])cc(C)c1NS(=O)(=O)CCSCCN
Second: COc1ccc2c(c1)C(N1CCN(C)CC1)c1ccccc1CC2 (centres undefined)
The melting point of the first is higher: 159 °C for the first, 119 to 120 °C for the second.
